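Where inhibition never reached the appropriate level, the endpoint shown equals the highest concentration tested. Otherwise, values were interpolated linearly from a five-concentration, 48-hour dose response in 96-well plates. At the GI50, growth is halved. Definition used: TGI = concentration required for complete inhibition of growth.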
Assays:
Assay in all cases: NCI anticancer screen, dose series, 48 h; in the data active means GI50 below about 0.43 µM; inactive means the rest
786-0 renal = tested on: 786-0 renal
A498 renal = tested on: A498 renal
A549 NSCLC = tested on: A549 NSCLC
ACHN renal = tested on: ACHN renal
BT-549 breast = tested on: BT-549 breast
CAKI-1 renal = tested on: CAKI-1 renal
CCRF-CEM leukemia = tested on: CCRF-CEM leukemia
COLO 205 colon = tested on: COLO 205 colon
DU-145 prostate = tested on: DU-145 prostate
EKVX NSCLC = tested on: EKVX NSCLC
HCC-2998 colon = tested on: HCC-2998 colon
HCT-116 colon = tested on: HCT-116 colon
HCT-15 colon = tested on: HCT-15 colon
HL-60(TB) leukemia = tested on: HL-60(TB) leukemia
HOP-62 NSCLC = tested on: HOP-62 NSCLC
HOP-92 NSCLC = tested on: HOP-92 NSCLC
HS 578T breast = tested on: HS 578T breast
HT29 colon = tested on: HT29 colon
IGROV1 ovarian = tested on: IGROV1 ovarian
K-562 leukemia = tested on: K-562 leukemia
KM12 colon = tested on: KM12 colon
LOX IMVI melanoma = tested on: LOX IMVI melanoma
M14 melanoma = tested on: M14 melanoma
MALME-3M melanoma = tested on: MALME-3M melanoma
MCF7 breast = tested on: MCF7 breast
MDA-MB-231 breast = tested on: MDA-MB-231 breast
MDA-MB-435 = tested on: MDA-MB-435
MDA-MB-468 breast = tested on: MDA-MB-468 breast
MOLT-4 leukemia = tested on: MOLT-4 leukemia
NCI-H226 lung = tested on: NCI-H226 lung
NCI-H23 lung = tested on: NCI-H23 lung
NCI-H460 lung = tested on: NCI-H460 lung
NCI-H522 lung = tested on: NCI-H522 lung
OVCAR-3 ovarian = tested on: OVCAR-3 ovarian
OVCAR-4 ovarian = tested on: OVCAR-4 ovarian
OVCAR-5 ovarian = tested on: OVCAR-5 ovarian
OVCAR-8 ovarian = tested on: OVCAR-8 ovarian
PC-3 prostate = tested on: PC-3 prostate
RPMI-8226 leukemia = tested on: RPMI-8226 leukemia
RXF 393 renal = tested on: RXF 393 renal
SF-268 CNS = tested on: SF-268 CNS
SF-295 CNS = tested on: SF-295 CNS
SF-539 CNS = tested on: SF-539 CNS
SK-MEL-2 melanoma = tested on: SK-MEL-2 melanoma
SK-MEL-28 melanoma = tested on: SK-MEL-28 melanoma
SK-MEL-5 melanoma = tested on: SK-MEL-5 melanoma
SK-OV-3 ovarian = tested on: SK-OV-3 ovarian
SN12C renal = tested on: SN12C renal
SNB-19 CNS = tested on: SNB-19 CNS
SR leukemia = tested on: SR leukemia
SW-620 colon = tested on: SW-620 colon
T-47D breast = tested on: T-47D breast
TK-10 renal = tested on: TK-10 renal
U251 CNS = tested on: U251 CNS
UACC-257 melanoma = tested on: UACC-257 melanoma
UACC-62 melanoma = tested on: UACC-62 melanoma
UO-31 renal = tested on: UO-31 renal

Cc1ccc(C(=O)CSc2nc3ccc(F)cc3c(=O)n2-c2ccc(Cl)cc2)cc1
44.5 µM: TGI (CAKI-1 renal)
73.8 µM: TGI (SNB-19 CNS)
21.4 µM: TGI (SF-295 CNS)
24.9 µM: TGI (NCI-H226 lung)
inactive: GI50 (786-0 renal) 11.1 µM | GI50 (A498 renal) > 100 µM | GI50 (A549 NSCLC) > 100 µM | GI50 (ACHN renal) 6.83 µM | GI50 (BT-549 breast) 11.2 µM | GI50 (CAKI-1 renal) 4.49 µM | GI50 (CCRF-CEM leukemia) > 100 µM | GI50 (COLO 205 colon) > 100 µM | GI50 (DU-145 prostate) 59.5 µM | GI50 (EKVX NSCLC) > 100 µM | GI50 (HCC-2998 colon) > 100 µM | GI50 (HCT-116 colon) > 100 µM | GI50 (HCT-15 colon) > 100 µM | GI50 (HL-60(TB) leukemia) > 100 µM | GI50 (HOP-62 NSCLC) 3.95 µM | GI50 (HOP-92 NSCLC) 5 µM | GI50 (HS 578T breast) 3.41 µM | GI50 (HT29 colon) > 100 µM | GI50 (IGROV1 ovarian) 27.1 µM | GI50 (K-562 leukemia) > 100 µM | GI50 (KM12 colon) > 100 µM | GI50 (LOX IMVI melanoma) 4.04 µM | GI50 (M14 melanoma) > 100 µM | GI50 (MALME-3M melanoma) 66.7 µM | GI50 (MCF7 breast) > 100 µM | GI50 (MDA-MB-231 breast) 15.1 µM | GI50 (MDA-MB-435) > 100 µM | GI50 (MDA-MB-468 breast) 82.9 µM | GI50 (MOLT-4 leukemia) > 100 µM | GI50 (NCI-H226 lung) 3.13 µM | GI50 (NCI-H23 lung) > 100 µM | GI50 (NCI-H460 lung) 10.3 µM | GI50 (NCI-H522 lung) > 100 µM | GI50 (OVCAR-3 ovarian) > 100 µM | GI50 (OVCAR-4 ovarian) 9.45 µM | GI50 (OVCAR-5 ovarian) > 100 µM | GI50 (OVCAR-8 ovarian) 7.89 µM | GI50 (PC-3 prostate) > 100 µM | GI50 (RPMI-8226 leukemia) > 100 µM | GI50 (RXF 393 renal) 4.89 µM | GI50 (SF-268 CNS) 25.3 µM | GI50 (SF-295 CNS) 3.51 µM | GI50 (SF-539 CNS) 5.08 µM | GI50 (SK-MEL-2 melanoma) > 100 µM | GI50 (SK-MEL-28 melanoma) > 100 µM | GI50 (SK-MEL-5 melanoma) > 100 µM | GI50 (SK-OV-3 ovarian) 39.1 µM | GI50 (SN12C renal) > 100 µM | GI50 (SNB-19 CNS) 4.93 µM | GI50 (SR leukemia) > 100 µM | GI50 (SW-620 colon) > 100 µM | GI50 (T-47D breast) > 100 µM | GI50 (TK-10 renal) 98.1 µM | GI50 (U251 CNS) 10.8 µM | GI50 (UACC-257 melanoma) > 100 µM | GI50 (UACC-62 melanoma) > 100 µM | GI50 (UO-31 renal) 37 µM
47.4 µM: TGI (SF-539 CNS)
50.4 µM: TGI (HOP-62 NSCLC)
57.5 µM: TGI (HOP-92 NSCLC)
32.6 µM: TGI (RXF 393 renal)
86.2 µM: TGI (HS 578T breast)
> 100 µM: TGI (786-0 renal) | TGI (A498 renal) | TGI (A549 NSCLC) | TGI (ACHN renal) | TGI (BT-549 breast) | TGI (CCRF-CEM leukemia) | TGI (COLO 205 colon) | TGI (DU-145 prostate) | TGI (EKVX NSCLC) | TGI (HCC-2998 colon) | TGI (HCT-116 colon) | TGI (HCT-15 colon) | TGI (HL-60(TB) leukemia) | TGI (HT29 colon) | TGI (IGROV1 ovarian) | TGI (K-562 leukemia) | TGI (KM12 colon) | TGI (LOX IMVI melanoma) | TGI (M14 melanoma) | TGI (MALME-3M melanoma) | TGI (MCF7 breast) | TGI (MDA-MB-231 breast) | TGI (MDA-MB-435) | TGI (MDA-MB-468 breast) | TGI (MOLT-4 leukemia) | TGI (NCI-H23 lung) | TGI (NCI-H460 lung) | TGI (NCI-H522 lung) | TGI (OVCAR-3 ovarian) | TGI (OVCAR-4 ovarian) | TGI (OVCAR-5 ovarian) | TGI (OVCAR-8 ovarian) | TGI (PC-3 prostate) | TGI (RPMI-8226 leukemia) | TGI (SF-268 CNS) | TGI (SK-MEL-2 melanoma) | TGI (SK-MEL-28 melanoma) | TGI (SK-MEL-5 melanoma) | TGI (SK-OV-3 ovarian) | TGI (SN12C renal) | TGI (SR leukemia) | TGI (SW-620 colon) | TGI (T-47D breast) | TGI (TK-10 renal) | TGI (U251 CNS) | TGI (UACC-257 melanoma) | TGI (UACC-62 melanoma) | TGI (UO-31 renal)

— PubChem BioAssay (NCI)
